Source: a melting point compilation (Tetko et al.; mined from patent text by program, amines drawn as free bases though some values may be those of a salt)

SMILES	melting point
N#CC1c2cccc(Br)c2C=CN1C(=O)c1ccccc1 (configuration not stated)	177 to 178 °C
CC1(c2cc(/C=C/c3ccc(C(=O)O)cc3)ccc2O)CCCCC1	229 °C
CN1c2ccc(C#CCO)cc2C(O)=C(C(=O)NCc2ccc(Cl)cc2)S1(=O)=O	167 to 168 °C
O=C(O)c1cn(CC2CCCC2)c2cc(Cl)ccc12	181 to 184 °C
Cc1c2cccc(-c3cccc(C(=O)NCCO)c3)c2nn1Cc1cccc(C(F)(F)F)c1	142 to 143 °C
CCc1nc(-c2cc3[nH]c(=O)c(=O)[nH]c3cc2[N+](=O)[O-])c[nH]1	249 to 250 °C
COC(=O)C(C)Oc1ccc(COc2ccc(-n3nc(C)n(C(F)F)c3=O)c(F)c2)cc1 (configuration not stated)	83 to 85 °C
CCc1cc2c(cc1OC)C(CN1CCC(c3noc4cc(F)ccc34)CC1)=C2	92 to 97 °C
O=C(Nc1cccc(C(F)(F)F)c1)c1cc(-c2ccc(F)cc2F)ccc1O	202 to 203 °C
CCSCCCNc1c(S(=O)(=O)C(F)(F)F)c(C#N)nn1-c1c(Cl)cc(C(F)(F)F)cc1Cl	80 °C
NC(=O)c1c(N)n[nH]c1N1CCN(Cc2ccccc2)CC1	234 to 236 °C
O=C(Oc1ccccc1)C(=C1NCCCS1)[N+](=O)[O-]	100 to 102 °C
CCOC(=O)Cc1cn(-c2ncnc3ccccc23)c2ccccc12	65 to 67 °C
NS(=O)(=O)c1ccc(-n2nc(C(F)F)cc2-c2ccc3c(c2)OCO3)cc1	214 to 218 °C
O=Cc1c[nH]c2c1ccc1c2[nH]c2cccc(Br)c21	> 250 °C
COc1cccc(Nc2c([N+](=O)[O-])cc(C(=O)O)cc2S(N)(=O)=O)c1	253 to 254 °C
COc1cc(CSc2ccc(O)cc2)cc(OC)c1O	128 °C
CNCC1=C(n2ccccc2=O)c2cc([N+](=O)[O-])ccc2OC1(C)C	128 °C
Cc1c(-c2ccccc2)oc2c(C(=O)OCCN3CCOCC3)cc(Cl)cc2c1=O	68 to 73 °C
c1cnc2[nH]c(C3CCNC3)cc2c1 (configuration not stated)	130 to 133 °C
COc1cc(C2=NNC(=O)CC2)ccc1OCC1CO1 (configuration not stated)	134 to 136 °C
Cc1ccc(C2OC(=O)NC2=O)s1 (configuration not stated)	108 to 109 °C
CCOC(=O)c1cn(CC)c2cc(N3CCNCC3)c(F)cc2c1=O	178 to 180 °C
CCOC(=O)C1=C(C)NC(C)=C(C(=O)OCC)C1c1ccc(F)c(Br)c1	118 to 119 °C

SMILES	melting point
CCOC(=O)c1ccc(N=C(Nc2ccc(C(=O)OCC)cc2)c2ccc(-c3ccccc3)cc2)cc1	152 to 160 °C
CON=Cc1cc(-n2c(=O)cc(C(F)(F)F)n(C)c2=O)c(F)cc1Cl	141 to 142 °C
CN(CCCNc1ncc(Cc2ccc(Cl)cc2)c(=O)[nH]1)c1ccccn1	65 °C
CCC1(CCCCN2CCN(c3ccccc3Cl)CC2)C(=O)Nc2ccccc21 (configuration not stated)	145 to 148 °C
C=CCCCn1ncc2c(OCC)c(C(=O)OCC)cnc21	61 to 62 °C
Nc1ccc(C(c2ccc(N)c(N)c2)(C(F)(F)F)C(F)(F)F)cc1N	218 to 220 °C
CC1(C)CC(=O)c2cc(OCC(F)(F)F)c(OCC(F)(F)F)cc2O1	92 to 93 °C
COC(=O)CCCc1cc2cc(C(F)(F)F)ccc2n1S(=O)(=O)c1ccc2nc(C)sc2c1	163 to 168 °C
CCOC(=O)c1cnn(C)c1NCc1ccc(-c2ccccc2C#N)cc1	107 to 108 °C
O=C(c1ccccc1)N1CCN(c2ccc3nc4[nH]c(=O)[nH]c4cc3c2)CC1	> 300 °C
COc1cccc(Sc2c(C)n(CC(=O)O)c3ccc(NS(C)(=O)=O)cc23)c1	292 °C
COc1ccc(C(=O)c2ccc(OCCc3nc(-c4ccccc4)oc3C)nc2)c(O)c1	114 to 115 °C
COC(/C=C/c1cccc(Cl)c1)=N/c1ccc(C(O)c2cncn2Cc2ccc(C#N)cc2)cc1 (configuration not stated)	192 °C
Cn1cc(C(=O)O)c2cccc(F)c21	225 to 227 °C
Clc1cc2c(cc1Cl)OCCO2	147 to 148 °C
Cc1cc(C)c(N2CCCc3c2[nH]n(C)c3=O)c(Cl)c1	95.9 to 99.9 °C
OC1(c2cccc(Cl)c2)C2=NCCCN2c2ccccc21 (configuration not stated)	186 to 187 °C
CN(C)CCNNc1ccc(CO)c2oc3ccc(O)cc3c(=O)c12	122 to 123 °C
N#CNc1nc2ccc(Cl)cc2[nH]1	> 300 °C
COc1cc(O)c2c(c1)C1OC1CC(O)C(O)C(=O)C=CCC(C)OC2=O (configuration not stated)	173 to 174 °C
Nc1c2c(nc3cccc(F)c13)CCCC2	175 °C
O=S(=O)(c1ccccc1)n1c2ccc(CCc3ccccc3)cc2c2cc(Cl)cnc21	158 to 162 °C
CON=C(c1ccon1)c1ccccc1COc1cc(C)ccc1C	104 to 108 °C

Second part, the compound after the results:

melting point	SMILES
132 to 134 °C	CC(C)(C)NC(=O)[C@@H]1C[C@H](Cl)CN1C(=O)[C@@H](O)[C@H](Cc1ccccc1)NC(=O)[C@H](CC(N)=O)NC(=O)c1cnc2ccccc2n1
< 30 °C	CCC1(C)CC(S(=O)Cc2c(F)cccc2F)=NO1 (configuration not stated)
126 to 128 °C	CCN(CC)CC(=O)Nc1cccc(-c2cc(-c3ccc(F)cc3OCOC)nc(NC(=O)c3ccco3)c2C#N)c1
173 to 175 °C	COc1ccnc(C(C)Sc2nc3cc4c(cc3[nH]2)OC(F)(F)O4)c1 (configuration not stated)
167 to 169 °C	COc1ccc(C2(O)C=CNC(=O)N2)cc1OC1CC2CCC1C2 (configuration not stated)
308 to 310 °C	O=C1CNCC2=C1N=C1N=C(N3CCOCC3)NN1C2
202 to 204 °C	Cc1cn(-c2cccc(OS(N)(=O)=O)c2)cn1
231 to 233 °C	Cc1cnc2c(NC(=O)c3ccccc3[N+](=O)[O-])ccc(C)c2c1-n1ccnc1
116 to 118 °C	CCCOc1ccc(NC=C(C(=O)OCC)C(=O)OCC)nc1C
324 to 327 °C	O=C1c2ccccc2C(=O)N1CCc1c[nH]c(=O)[nH]c1=O
54 to 61 °C	CC(C)(C)OC(=O)N[C@@H](Cc1ccc(OCc2ccccc2)cc1)C(=O)NCCN1CCCCC1
204 to 205 °C	Cc1c(NC(=O)C(CSC(=O)c2ccccc2)Cc2ccccc2)cccc1C(=O)O (configuration not stated)
129 to 140 °C	CC(=O)NC1(c2ccc(CN3CCN(c4ccccc4)CC3)cc2)CC1
156 to 159 °C	CCn1ncc2c(Cl)c3c(nc21)C(=O)c1ccccc1CC3
162 to 163 °C	CCCc1nc2c(N)nc3c(c2n1CCCCCC(=O)N1CCOCC1)CCCC3
118 to 122 °C	CSc1ccc(C2=C(c3ccc(F)cc3)C(=O)OC2)c(F)c1
55 to 57 °C	C1=NC2=C(CCC1)CSC2
264 to 266 °C	Nc1ccn(CC2CC2)c(=O)n1
147 to 148 °C	FC(F)(F)c1cccc(CSc2nnc(-c3ccn4ncnc4c3)o2)c1
221 to 224 °C	COc1ccc(O)cc1CCc1ccc2nc[nH]c(=O)c2c1
173 to 174 °C	CN(C)Cn1nc(-c2ccncc2)n(-c2ccccc2)c1=S
> 260 °C	O=S(=O)(O)c1ccc2c(c1)CNC(C(Cl)(Cl)Cl)O2 (configuration not stated)
218 to 219 °C	CCCC(=O)c1ccc(NC(=S)N2CCN(c3ncnc4cc(OC)c(OC)cc34)CC2)cc1
155 to 156 °C	Cn1c(=O)ccc2cnc(NCCc3ccccn3)nc21
172 to 175 °C	COc1ccc(C(=O)Nc2ccccc2)cc1NCc1cccc([N+](=O)[O-])c1
